Results published in patent US12358932B2, “Chemical compounds” (BORAH, INC., priority 2019, dated 2025).

Biological target: T1, Recombinant human PDE4B (Homo sapiens, UniProt Q07343)
T1 construct: aa 305-end; GST (N); made in house; host or cells: Sf9 insect cells (baculovirus)
Experiment: PDE4B Phosphodiesterase Assay
Format: biochemical
Design: key to Activity Note: PDE4: The (+) symbols identify a compound of the present disclosure with the noted target activity; +*: The (*) symbols indicate preferential activity, where the greater number identifies the most preferred compounds; +**: The (*) symbols indicate preferential activity, where the greater number identifies the most preferred compounds; +***: The (*) symbols indicate preferential activity, where the greater number identifies the most preferred compounds
Conditions: compound list; + = noted target activity
Experimental: The assay is based on the fluorescence polarization measuring AMP/GMP production as a result of the enzyme activity by displacement of Tracer binding to the AMP/GMP antibody. • Reaction Buffer: 10 mM Tris-HCl, pH 7.5, 5 mM MgCl2, 0.01% Brij 35, 1 mM DTT and 1% DMSO. • Enzyme: Recombinant human PDE4B (Gene Accession #NM_002600; aa 305-end) was expressed by baculovirus in Sf9 insect cells using an N-terminal GST tag. Mw=78 kDa. • Substrate: 1 μM cAMP • Detection: Transcreener® AMP2/GMP2 Antibody AMP2/GMP2 AlexaFluor 633 Tracer Reaction Procedure: • 1. Prepared indicated enzyme and substrate in freshly prepared Reaction Buffer • 2. Delivered enzyme solution into the reaction well • 3. Delivered compounds in 100% DMSO into the enzyme solution by Acoustic technology (Echo550; nanoliter range), incubated for 10 min at room temperature • 4. Delivered substrate solution into the reaction well to initiate the reaction • 5. Incubated for 1 h at room temperature • 6. Added detection mixture (Tracer and antibody in the stop buffer) to stop the reaction and incubated for 90 min with gentle mixing. The fluorescence polarization was measured at Ex/Em 620/688.
Data Analysis: The FP signals were converted into nM product based on an AMP/GMP standard curve and calculated % Enzyme activity relative to DMSO control by Excel. The curve fit was performed using GraphPad prism.

T1 sequence (Q07343 305-736 limits assumed): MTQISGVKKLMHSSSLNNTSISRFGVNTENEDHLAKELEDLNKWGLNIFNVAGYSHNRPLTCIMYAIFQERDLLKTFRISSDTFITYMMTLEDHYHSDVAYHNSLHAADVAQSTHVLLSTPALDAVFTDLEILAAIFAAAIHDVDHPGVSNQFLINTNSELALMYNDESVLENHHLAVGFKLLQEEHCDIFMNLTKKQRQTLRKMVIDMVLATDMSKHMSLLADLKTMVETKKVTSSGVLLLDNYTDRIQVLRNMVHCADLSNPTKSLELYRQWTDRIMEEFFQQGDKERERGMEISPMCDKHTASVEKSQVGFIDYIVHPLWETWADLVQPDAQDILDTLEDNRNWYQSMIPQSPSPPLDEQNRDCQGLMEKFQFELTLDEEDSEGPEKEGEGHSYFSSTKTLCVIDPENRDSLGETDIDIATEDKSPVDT

CCCNc1nc(Nc2ccc3c(c2)COB3O)ncc1C [5-((5-methyl-4-(propylamino)pyrimidin-2-yl)amino)benzo[c][1,2]oxaborol-1(3H)-ol]
Activity Note: PDE4: +

CCC(CCOC)Nc1nc(Nc2ccc3c(c2)COB3O)ncc1C(F)(F)F (centres unmarked) [5-((4-((1-methoxypentan-3-yl)amino)-5-(trifluoromethyl)pyrimidin-2-yl)amino)benzo[c][1,2]oxaborol-1(3H)-ol]
Activity Note: PDE4: +

CCCNc1nc(Nc2ccc3c(c2)COB3O)ncc1C=O [2-((1-hydroxy-1,3-dihydrobenzo[c][1,2]oxaborol-5-yl)amino)-4-(propylamino)pyrimidine-5-carbaldehyde]
Activity Note: PDE4: +

Cc1cnc(Nc2ccc3c(c2)COB3O)nc1NCc1cccc(Cl)c1 [5-((4-((3-chlorobenzyl)amino)-5-methylpyrimidin-2-yl)amino)benzo[c][1,2]oxaborol-1(3H)-ol]
Activity Note: PDE4: +

CCCC(CC)Nc1nc(Nc2ccc3c(c2)COB3O)ncc1F (centres unmarked) [5-((5-fluoro-4-(hexan-3-ylamino)pyrimidin-2-yl)amino)benzo[c][1,2]oxaborol-1(3H)-ol]
Activity Note: PDE4: +

CCC(CC)Sc1nc(Nc2ccc3c(c2)COB3O)ncc1C [5-((5-methyl-4-(pentan-3-ylthio)pyrimidin-2-yl)amino)benzo[c][1,2]oxaborol-1(3H)-ol]
Activity Note: PDE4: +

Cc1cnc(Nc2ccc3c(c2)COB3O)nc1NC1CCC(C)CC1 (centres unmarked) [5-((5-methyl-4-((4-methylcyclohexyl)amino)pyrimidin-2-yl)amino)benzo[c][1,2]oxaborol-1(3H)-ol]
Activity Note: PDE4: +

CCC(CC)Oc1nc(Nc2ccc3c(c2)COB3O)ncc1C [5-((5-methyl-4-(pentan-3-yloxy)pyrimidin-2-yl)amino)benzo[c][1,2]oxaborol-1(3H)-ol]
Activity Note: PDE4: +

CCC(CC)Nc1nc(Nc2ccc3c(c2)COB3O)ncc1C#N [2-((1-hydroxy-1,3-dihydrobenzo[c][1,2]oxaborol-5-yl)amino)-4-(pentan-3-ylamino) pyrimidine-5-carbonitrile]
Activity Note: PDE4: +

Cc1cnc(Nc2ccc3c(c2)COB3O)nc1NC(CCF)CCF [5-((4-((1,5-difluoropentan-3-yl)amino)-5-methylpyrimidin-2-yl)amino)benzo[c][1,2]oxaborol-1(3H)-ol]
Activity Note: PDE4: +

Cc1cnc(Nc2ccc3c(c2)COB3O)nc1NCc1ccc(Cl)cc1 [5-((4-((4-chlorobenzyl)amino)-5-methylpyrimidin-2-yl)amino)benzo[c][1,2]oxaborol-1(3H)-ol]
Activity Note: PDE4: +

Cc1cnc(Nc2ccc3c(c2)COB3O)nc1NC1CC1 [5-((4-(cyclopropylamino)-5-methylpyrimidin-2-yl)amino)benzo[c][1,2]oxaborol-1(3H)-ol]
Activity Note: PDE4: +

OB1OCc2cc(Nc3ncc(C(F)(F)F)c(NC4CCCC4)n3)ccc21 [5-((4-(cyclopentylamino)-5-(trifluoromethyl)pyrimidin-2-yl)amino)benzo[c][1,2]oxaborol-1(3H)-ol]
Activity Note: PDE4: +

CCC(C)Nc1nc(Nc2ccc3c(c2)COB3O)ncc1C(F)(F)F (centres unmarked) [5-((4-(sec-butylamino)-5-(trifluoromethyl)pyrimidin-2-yl)amino)benzo[c][1,2]oxaborol-1(3H)-ol]
Activity Note: PDE4: +

Cc1cnc(Nc2ccc3c(c2)COB3O)nc1Nc1ccccc1C(F)(F)F [5-((5-methyl-4-((2-(trifluoromethyl)phenyl)amino)pyrimidin-2-yl)amino)benzo[c][1,2]oxaborol-1(3H)-ol]
Activity Note: PDE4: +

Cc1cnc(Nc2ccc3c(c2)COB3O)nc1NCc1ccccc1 [5-((4-(benzylamino)-5-methylpyrimidin-2-yl)amino)benzo[c][1,2]oxaborol-1(3H)-ol]
Activity Note: PDE4: +

Cc1cnc(Nc2ccc3c(c2)COB3O)nc1OC1CCCCC1 [5-((4-(cyclohexyloxy)-5-methylpyrimidin-2-yl)amino)benzo[c][1,2]oxaborol-1(3H)-ol]
Activity Note: PDE4: +
